Reference: patent US11384115B2, “Nuclear sulfated oxysterol, potent regulator of lipid homeostasis, for therapy of hypercholesterolemia, hypertriglycerides, fatty liver diseases, and atherosclerosis” (Virginia Commonwealth University, priority 2004, dated 2022)

Experiments:
[1] = test system: ABCA1, ABCG1, ABCG5, ABCG8 gene expression; assay: LXR targeting gene expression by real time RT-PCR in primary hepatocytes; assay type: cell-based, mouse
Description: FIG. 10. ABCA1 (A1), ABCG1 (G1), LDL receptor (LDLR), ABCG5 (G5), and ABCG8 (G8) gene expression in primary mouse hepatocytes following addition of the purified nuclear oxysterol. At 24 hrs following the addition, cells were harvested and total RNAs were extracted and gene expression levels were quantitated by real time RT-PCR. β-Actin mRNA was used as total mRNA internal standard. The gene expression levels in cells […] were compared with those in control cells. Ten μg of total RNA was used for cDNA preparation (RT) and 10 ng of cDNA was used for PCR. The expression levels were normalized to β-actin.
Preliminary experiments have shown that the purified nuclear oxysterol up-regulates bile acid synthesis. To further investigate the mechanism of this activity, the effect of purified 5-cholesten-3β, 25-diol 3-sulphate on gene expression of LXR-targeted cholesterol transport proteins ABCA1, ABCG1, ABCG5, ABCG8, and LDLR was investigated. Purified nuclear sulfated oxysterol was added to primary hepatocytes in culture, and mRNA levels of the transport proteins were quantitated by real time RT-PCR. The primer sets and TagMan probes for detection of mRNA levels were purchased from AB Applied Biosystem (Foster City, Calif.) and the reactions were performed on an MJ Research DNA Engine Opticon instrument.

[2] = test system: HMG CoA reductase; assay: Western blot of HMG CoA reductase protein in HepG2 cells; assay type: cell-based, human
Description: FIGS. 15A-15D. 25HC3S regulates HMGR mRNA Expression. Real time RT-PCR analysis of HMG CoA R reductase expression in HepG2 cells (FIGS. 15A and 15B). Western blot analysis of protein levels of HMG CoA reductase (FIG. 15C). Total RNAs were purified using SV Total RNA Isolation Kit (Promega) from the cells treated with 25HC3S at concentrations as indicated (FIG. 15A) and incubation at 12 μM of 25HC3S for the different times (effect on HMG CoA mRNA) (FIG. 15B). Two μg of total RNA was used for cDNA preparation (RT) and performed as manufacture recommended (Invitrogen), and 10 ng of cDNA was used for real time PCR. The expression levels were normalized to GAPDH. The bands of HMG CoA reductase (HMGR) were quantitated by laser density scanning. Each value represents mean of three experiments±standard derivation.
Microsomal proteins (80 μg) were separated on a 7.5% SDS-polyacrylamide denaturing gel according to the method of Laemmli (14). Following SDS-PAGE (Hoefer Vertical Slab Gel Unit; Heofer, San Francisco, Calif.), proteins were electrophoretically transferred overnight (4° C.) to Immobilon-P membranes using a Hoefer Trans Blot Electrophoretic Transfer cell. The membranes were then blocked for 90 minutes (25° C.) in blocking buffer (PBS, pH 7.4, 0.1% Tween, 5% non-fat dry milk). […] Protein bands were detected using the Amersham ECL plus Kit.

[3] = Liver triglycerides (Sudan IV staining) in mice on normal or high cholesterol diet; assay type: in vivo; conditions: normal or high cholesterol diet for 8 days
Description: To test the effect of diet on cholesterol levels, mice were provided with either a normal or high cholesterol diet for 8 days, and treated with the nuclear oxysterol as described above.

[4] = target: T1, PPARγ (Homo sapiens, UniProt P37231); assay: PPARγ transcription factor assay (PPRE-immobilized ELISA) of nuclear extracts; assay type: cell-based; conditions: THP-1 macrophages, 4 hrs, concentration-dependent
T1 construct: THP-1 monocytes were differentiated to macrophages by adding 100 nM of phorbol 12-myristate 13-acetate (PMA); endogenous in cells; host or cells: THP-1 monocyte-derived macrophages (human, ATCC)
T1 sequence (P37231 1-505): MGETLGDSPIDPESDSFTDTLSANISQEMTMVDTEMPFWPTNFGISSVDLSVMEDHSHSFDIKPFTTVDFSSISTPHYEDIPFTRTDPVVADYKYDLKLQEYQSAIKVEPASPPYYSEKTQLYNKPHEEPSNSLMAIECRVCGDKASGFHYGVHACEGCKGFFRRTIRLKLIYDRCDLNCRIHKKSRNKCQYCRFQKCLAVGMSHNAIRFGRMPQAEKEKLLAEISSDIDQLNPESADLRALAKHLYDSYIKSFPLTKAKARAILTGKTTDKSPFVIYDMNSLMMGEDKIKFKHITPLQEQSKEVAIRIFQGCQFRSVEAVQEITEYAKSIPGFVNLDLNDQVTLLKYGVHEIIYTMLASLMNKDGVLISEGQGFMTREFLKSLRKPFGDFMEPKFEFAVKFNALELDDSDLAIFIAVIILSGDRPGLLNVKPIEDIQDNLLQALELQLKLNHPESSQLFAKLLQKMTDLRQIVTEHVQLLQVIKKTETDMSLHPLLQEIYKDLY
Description: PPAR response elements (PPRE) binding activities were measured using an enzyme-linked immunosorbent assay (PPAR transcription factor assay kit; Cayman Chemical, Ann Arbor, Mich.). The 96-well plate was preimmobilized with deoxyoligonucleoties containing PPRE. […] The cells were then rinsed and nuclear proteins were extracted according to the manufacturer's instructions. Total nuclear extract protein, 10 g from each sample, was added to the plate. The kit provided two negative as zero controls, one positive as maximal binding control, and one competitive as specific binding control (in the presence of dsDNA) were used in the assay. After incubating for 1 hr, the wells were washed and incubated with primary PPAR antibody which recognizes the accessible epitope on PPAR protein upon PPRE binding. The peroxidase-labeled second antibody was added and incubated for 1 hr. The reaction was stopped and absorbance was read at 450 nm in a spectrophotometer.

[5] = test system: PPARγ; assay: PPRE promoter reporter gene-luciferase assay in H441 cells; assay type: cell-based, human
Description: H441 cells were seeded in 96-well plates. When cell density reached 90-95%, the cells were transfected with an expression plasmid as indicated using a lipid-based FuGENE HD transfection reagent according to the manufacture (Roche, Indianapolis, Ind.). A synthetic renilla luciferase reporter, phrG-TK (Promega, Wisconsin, Wis.), was used as a luciferase internal standard. For PPRE reporter gene assay, 50 ng of pGL3-PPRE-acyl-CoA oxidase luciferase reporter, 50 ng of expression plasmid pCMX-PPARγ, and 50 ng of phrG-TK vector (internal standard) were cotransfected as per the manufacture's instruction. […] Luciferase activities were determined using the Dual-Glo Luciferase Assay System according to the manufacturer's protocol (Promega, Wisconsin, Wis.). The amount of luciferase activity was measured using a TopCount NXT Microplate Scintillation and Luminescence Counter (Packard, Meriden, Conn.) and normalized to the amount of phG-TK luciferase activity. Transfections were carried out in triplicate for each sample, and each experiment was repeated three times.

[6] = primary hepatocytes in culture, mRNA

C[C@H](CCCC(C)(C)O)[C@H]1CC[C@H]2[C@@H]3CC=C4C[C@@H](OS(=O)(=O)O)CC[C@]4(C)[C@H]3CC[C@]12C [25HC3S, 5-cholesten-3β, 25-diol 3-sulphate]
increased expression of ABCA1 [1, 6]: 2 fold | increased expression of ABCG5 [1, 6]: 1.6 fold | increased expression of ABCG8 [1, 6]: 3 fold | expression of ABCG1 ([1]; primary hepatocytes, compared with control cells): did not change | decrease of HMG CoA reductase protein level [2]: 50% | triglyceride levels in liver tissues [3]: significantly decreased | PPRE-binding activities of the nuclear extracts [4]: significantly increased | PPARγ reporter gene activities in the presence of the antagonist T0070907 ([5]; H441, ACOX-PPRE reporter and PPARγ co-overexpression, 1 μM T0070907): failed | PPRE activity relative to rosiglitazone ([5]; at 25 μM): reached to a similar levels as that induced by the PPARγ agonist rosiglitazone
